Like-named read-outs stand apart in the source and are kept apart here.
How the values were obtained:
Assay type in all cases: in vivo, human
[1] = system: participants with type 2 diabetes mellitus (T2DM); assay: Clinical dose guiding study: 24-hour mean daily glucose (MDG); settings: Day 28; for Mean Daily Glucose, Mean CFB: oral, on metformin
From the text: (§1) This study was a randomized, double-blind (sponsor-open), parallel, placebo-controlled, multiple oral dose-escalating study of Compound 1 (in the form of its tris salt) in participants with type 2 diabetes mellitus (T2DM) on a background of metformin monotherapy.
(§2) A total of 98 participants received oral doses of Compound 1 (in the form of its tris salt) or matching placebo for 28 days, in this study. A total of approximately 12 participants were enrolled in each cohort with a randomization ration of 3:1 (9 active and 3 placebo), and 8 cohorts were enrolled in the study. Participants were admitted to the clinical research unit (CRU) on or before Day −2 and were discharged following completion of all assessments on Day 30, at principal investigator discretion. For individual participants, the total duration of participation from the Screening visit to the on-site Follow-up visit was approximately 15 weeks. A Follow-up visit and a Follow-up contact (which have been conducted by phone call) occurred 35-42 days and 56-63 days following the first dose of investigational product on Day 1, respectively. Participants who discontinued prior to completion of the study might have been replaced, at the discretion of the principal investigator and Sponsor. 92 participants completed the inpatient study.
(§3) The planned titration schemes and dosing paradigms for all Cohorts are listed in Table 2-1. • QD: once daily • BID: twice daily
(§4) Diagnosis and Main Criteria for Inclusion: The population for this study was female participants of non-childbearing potential and/or male participants with T2DM, with an HbA1c […], who were taking metformin as their only anti-hyperglycemic treatment, and who were between 18 and 70 years with T2DM at the time of consent and Screening, with a body mass index (BMI) of 24.5 to 45.4 kg/m^2 and a total body weight >50 kg (110 lb). Metformin dose was required to be 500 mg per day and was required to be stable, for at least 2 months prior to the Screening visit and was administered in the CRU according to patient's baseline dosing regimen.
(§5) Study Treatment: Compound 1 (in the form of its tris salt) was supplied as 1 mg, 10 mg, 50 mg and 100 mg immediate release (IR) tablets or 50 mg controlled release (CR) tablets (see Examples 1 and 2) for oral administration. Matching placebo tablets (2:1, Microcrystalline Cellulose: Lactose) were also provided.
(§6) Measurements of fasting plasma glucose (FPG), 24-hour mean daily glucose (MDG), HbA1C, and body weight at baseline (at Day −1) and at Day 28 (shown as change from baselin) are shown in Tables 2-2 to 2-5.
(§7) Baseline was defined as the measurement (MDG, FPG, HbA1c, or body weight) on Day −1. Randomized treatment represented the target dose at Day 28.
Observed data presented. Mean Daily Glucose (MDG) was defined as AUC24/24.

[2] = system: participants with type 2 diabetes mellitus (T2DM); assay: Clinical dose guiding study: fasting plasma glucose (FPG); settings: Day 28, oral, on metformin
From the text: as §1, §2, §3, §4, §5, §6, §7

[3] = system: participants with type 2 diabetes mellitus (T2DM); assay: Clinical dose guiding study: HbA1c; settings: Day 28, oral, on metformin
From the text: as §1, §2, §3, §4, §5, §6, §7

[4] = Clinical dose guiding study: body weight; settings: Day 28, oral, T2DM on metformin
From the text: as §1, §2, §3, §4, §5, §6, §7

[5] = Clinical dose guiding study: plasma pharmacokinetics and urinary recovery; settings: for Tmax: read-out: median Tmax and Tmax1
From the text: as §1, §2, §5

[6] = system: participants with type 2 diabetes mellitus (T2DM); assay: Clinical dose guiding study: adverse events (TEAEs); settings: for number of all causality TEAEs (events) / number of all causality TEAEs: 28 days
From the text: as §1, §2, §5

[7] = system: participants with type 2 diabetes mellitus (T2DM); assay: Clinical dose guiding study: ECG; settings: planned treatment groups; self-limited
From the text: as §1
as §2, with “inpatient study. […]” for “inpatient study.”

N#Cc1ccc(COc2cccc(C3CCN(Cc4nc5ccc(C(=O)O)cc5n4C[C@@H]4CCO4)CC3)n2)c(F)c1 [1,3-dihydroxy-2-(hydroxymethyl)propan-2-aminium 2-[(4-{6-[(4-cyano-2-fluorobenzyl)oxy]pyridin-2-yl}piperidin-1-yl)methyl]-1-[(2S)-oxetan-2-ylmethyl]-1H-benzimidazole-6-carboxylate]
Mean Daily Glucose, Mean CFB ([1]; 10 mg BID, baseline 189.9): -53.3 mg/dL
Mean Daily Glucose, Mean CFB ([1]; 15 mg BID, baseline 225.4): -85.9 mg/dL
Mean Daily Glucose, Mean CFB ([1]; 50 mg BID, baseline 190.2): -48.7 mg/dL
Mean Daily Glucose, Mean CFB ([1]; 70 mg BID, baseline 218.5): -101.6 mg/dL
Mean Daily Glucose, Mean CFB ([1]; 120 mg BID Slow Titration, baseline 179.9): -68.6 mg/dL
Mean Daily Glucose, Mean CFB ([1]; 120 mg BID, baseline 219.0): -105.9 mg/dL
Mean Daily Glucose, Mean CFB ([1]; 120 mg QD, baseline 188.8): -70.9 mg/dL
Mean Daily Glucose, Mean CFB ([1]; 200 mg QD Controlled Release, baseline 225.2): -102.8 mg/dL
reductions in FPG, MDG, HbA1c, and body weight ([1]; increasing efficacy at higher doses of 70 mg to 120 mg twice daily): robust reductions
Fasting Plasma Glucose, Mean CFB ([2]; 10 mg BID, baseline 158.3): -34.3 mg/dL
Fasting Plasma Glucose, Mean CFB ([2]; 15 mg BID, baseline 198.4): -66.6 mg/dL
Fasting Plasma Glucose, Mean CFB ([2]; 50 mg BID, baseline 168.1): -34.5 mg/dL
Fasting Plasma Glucose, Mean CFB ([2]; 70 mg BID, baseline 186.3): -80.6 mg/dL
Fasting Plasma Glucose, Mean CFB ([2]; 120 mg BID Slow Titration, baseline 176.3): -75.1 mg/dL
Fasting Plasma Glucose, Mean CFB ([2]; 120 mg BID, baseline 196.9): -89.7 mg/dL
Fasting Plasma Glucose, Mean CFB ([2]; 120 mg QD, baseline 179.9): -48.3 mg/dL
Fasting Plasma Glucose, Mean CFB ([2]; 200 mg QD Controlled Release, baseline 195.3): -77.3 mg/dL
HbA1c, Mean CFB ([3]; 10 mg BID, baseline 8.2): −0.8%
HbA1c, Mean CFB ([3]; 15 mg BID, baseline 8.6): −0.9%
HbA1c, Mean CFB ([3]; 50 mg BID, baseline 8.3): −1.2%
HbA1c, Mean CFB ([3]; 70 mg BID, baseline 8.3): −1.2%
HbA1c, Mean CFB ([3]; 120 mg BID Slow Titration, baseline 8.2): −1.2%
HbA1c, Mean CFB ([3]; 120 mg BID, baseline 8.5): −1.2%
HbA1c, Mean CFB ([3]; 120 mg QD, baseline 8.2): −1.0%
HbA1c, Mean CFB ([3]; 200 mg QD Controlled Release, baseline 8.6): −1.1%
Body Weight, Mean CFB ([4]; 10 mg BID, baseline 99.90): -2.8 kg
Body Weight, Mean CFB ([4]; 15mg BID, baseline 93.60): -2.4 kg
Body Weight, Mean CFB ([4]; 50 mg BID, baseline 88.24): -2.4 kg
Body Weight, Mean CFB ([4]; 70 mg BID, baseline 86.08): -4.0 kg
Body Weight, Mean CFB ([4]; 120 mg BID Slow Titration, baseline 88.01): -5.5 kg
Body Weight, Mean CFB ([4]; 120 mg BID, baseline 101.34): -7.9 kg
Body Weight, Mean CFB ([4]; 120 mg QD, baseline 84.88): -4.3 kg
Body Weight, Mean CFB ([4]; 200 mg QD Controlled Release, baseline 92.29): -3.1 kg
dose proportionality of exposure (dose normalized mean AUC24) ([5]; Day 1, BID and QD treatments, IR formulation): approximately dose proportional
dose proportionality of AUC24 and Cmax ([5]; Day 28, BID IR formulation cohorts): approximately dose-proportional
Tmax ([5]; human, plasma, Day 1, single oral dose, IR formulation, QD and BID regimens): 2 to 4 h
incidence of all causalities TEAEs in Gastrointestinal Disorders category ([6]; 10 mg BID group (placebo 52.0%)): 33.3%
number of all causality TEAEs (events) ([6]; 10 mg BID group): 8 events
number of all causality TEAEs (events) ([6]; 15 mg BID group): 16 events
participants discontinued from the study due to treatment-related TEAEs ([6]; 15 mg BID group, moderate TEAE of headache): 1 participant
participants with dose reduction or temporary discontinuation due to TEAEs ([6]; 50 mg BID group): 4 participants
number of all causality TEAEs ([6]; 50 mg BID group): 45
participants discontinued from the study due to treatment-related TEAEs ([6]; 50 mg BID group, moderate decreased appetite, nausea, vomiting and mild fatigue): 1 participant
number of all causality TEAEs ([6]; 70 mg BID group): 31
participants with dose reduction or temporary discontinuation due to TEAEs ([6]; 120 mg BID Slow titration group): 2 participants
participants with dose reduction or temporary discontinuation due to TEAEs ([6]; 120 mg BID group): 1 participants
number of all causality TEAEs ([6]; 120 mg BID group): 43
participants with mild hypoglycemia ([6]; 120 mg BID group, after missing a meal or snack, self-limited, treatment-related): 1 participant
severe TEAEs ([6]; 120 mg BID slow titration group, 1 treatment-related, 1 not): 2
number of all causality TEAEs (events) ([6]; 120 mg BID slow titration group): 50 events
SAE ([6]; 120 mg BID slow titration group, not treatment-related): 1
number of all causality TEAEs ([6]; 120 mg QD group): 35
participants with dose reduction or temporary discontinuation due to TEAEs ([6]; 200 mg QD CR group): 1 participants
number of all causality TEAEs ([6]; 200 mg QD CR group): 47
adverse trends in safety laboratory tests, vital signs or ECG parameters with increasing dose ([6]; ascending, multiple, oral doses): no clinically significant adverse trends
overall safety and tolerability ([6]; ascending, multiple, oral doses, adult participants with T2DM): generally safe and well-tolerated
participants with post-baseline ECG meeting criteria of QTcF interval >450 and ≤80 or change from baseline >30 and ≤60 [7]: 3 participants

N#Cc1ccc(COc2cccc(C3CCN(Cc4nc5ccc(C(=O)O)cc5n4C[C@@H]4CCO4)CC3)n2)c(F)c1 [Compound 1, 2-[(4-{6-[(4-Cyano-2-fluorobenzyl)oxy]pyridin-2-yl}piperidin-1-yl)methyl]-1-[(2S)-oxetan-2-ylmethyl]-1H-benzimidazole-6-carboxylic acid]
Urinary recovery, dose recovered unchanged in urine ([5]; Day 28): < 0.1 % of the dose
Tmax ([5]; human, plasma, oral, Day 28, BID and QD IR treatments): 3 to 10 h
half-life ([5]; human, plasma, oral, across all treatments, read-out: Mean t % (terminal half life)): 4.7 to 8.1 h
